What was measured:
[1] = Liquid, Constant-volume piezometry
[2] = xn = mol fraction of the nth substance listed; conditions: Liquid

c1ccc2[nH]ccc2c1 [1H-indole]
specific volume [m3/kg], [1]
Conditions | 323.15 K | 333.15 K | 343.15 K | 353.15 K
100 kPa | 0.0009295 | 0.000936 | 0.0009428 | 0.0009499
10000 kPa | – | 0.0009315 | 0.0009381 | 0.0009449
20000 kPa | – | 0.0009273 | 0.0009335 | 0.0009402
30000 kPa | – | 0.0009228 | 0.0009292 | 0.0009358
40000 kPa | – | 0.0009192 | 0.0009249 | 0.0009313
50000 kPa | – | 0.0009157 | 0.0009209 | 0.0009273
60000 kPa | – | – | 0.0009173 | 0.0009231
70000 kPa | – | – | 0.000914 | 0.0009195
80000 kPa | – | – | 0.0009103 | 0.0009158
90000 kPa | – | – | – | 0.0009123
100000 kPa | – | – | – | 0.0009091
110000 kPa | – | – | – | 0.0009059

c1ccc2[nH]ccc2c1 [1H-indole] + c1ccc(-c2ccccc2)cc1
specific volume [m3/kg], [2], 100 kPa
Conditions | 303.15 K | 313.15 K | 323.15 K | 333.15 K | 343.15 K | 353.15 K | 363.15 K
x1 = 0.25 | – | – | 0.0009769 | 0.0009848 | 0.0009924 | 0.001 | 0.001009
x1 = 0.5 | 0.0009477 | 0.000955 | 0.0009624 | 0.0009698 | 0.000977 | 0.0009848 | 0.0009924
x1 = 0.75 | 0.0009328 | 0.0009393 | 0.0009462 | 0.0009538 | 0.0009599 | 0.0009675 | 0.0009747
x1 = 1 | – | – | 0.0009295 | 0.000936 | 0.0009428 | 0.0009499 | –

specific volume [m3/kg], [2], 333.15 K, Constant-volume piezometry
Conditions | x1 = 0.25 | x1 = 0.5 | x1 = 0.75 | x1 = 1
100 kPa | 0.0009848 | 0.0009698 | 0.0009538 | 0.000936
10000 kPa | 0.0009792 | 0.0009648 | 0.0009488 | 0.0009315
20000 kPa | 0.0009737 | 0.0009601 | 0.0009442 | 0.0009273
30000 kPa | – | 0.0009553 | 0.0009399 | 0.0009228
40000 kPa | – | 0.0009507 | 0.0009356 | 0.0009192
50000 kPa | – | 0.0009464 | 0.0009316 | 0.0009157
60000 kPa | – | 0.0009423 | 0.0009278 | –
70000 kPa | – | 0.0009384 | 0.0009241 | –
80000 kPa | – | 0.0009347 | 0.0009205 | –
90000 kPa | – | – | 0.0009171 | –
100000 kPa | – | – | 0.0009139 | –
110000 kPa | – | – | 0.0009108 | –
120000 kPa | – | – | 0.0009077 | –
130000 kPa | – | – | 0.0009047 | –
140000 kPa | – | – | 0.000902 | –
150000 kPa | – | – | 0.0008991 | –
160000 kPa | – | – | 0.0008965 | –
170000 kPa | – | – | 0.0008939 | –

Cc1ccc2ccccc2c1 [2-methylnaphthalene]
[1]
Conditions | specific volume [m3/kg]
303.15 K, 100 kPa | 0.001001
313.15 K, 100 kPa | 0.001009
323.15 K, 100 kPa | 0.001017
333.14 K, 100 kPa | 0.001025
333.15 K, 100 kPa | 0.001025
333.15 K, 10000 kPa | 0.001018
333.15 K, 20000 kPa | 0.001012
333.15 K, 30000 kPa | 0.001007
333.15 K, 40000 kPa | 0.001001
333.15 K, 50000 kPa | 0.0009961
333.15 K, 60000 kPa | 0.0009915
333.15 K, 70000 kPa | 0.0009868
333.15 K, 80000 kPa | 0.0009826
333.15 K, 90000 kPa | 0.0009784
333.15 K, 100000 kPa | 0.0009749
343.15 K, 100 kPa | 0.001033
343.15 K, 10000 kPa | 0.001026
343.15 K, 20000 kPa | 0.00102
343.15 K, 30000 kPa | 0.001014
343.15 K, 40000 kPa | 0.001008
343.15 K, 50000 kPa | 0.001003
343.15 K, 60000 kPa | 0.0009977
343.15 K, 70000 kPa | 0.0009932
343.15 K, 80000 kPa | 0.0009885
343.15 K, 90000 kPa | 0.0009843
343.15 K, 100000 kPa | 0.0009802
343.15 K, 110000 kPa | 0.0009764
343.15 K, 120000 kPa | 0.0009725
343.15 K, 130000 kPa | 0.0009689
343.15 K, 140000 kPa | 0.0009655
353.15 K, 100 kPa | 0.001041

Cc1ccc2ccccc2c1 [2-methylnaphthalene] + c1ccc2[nH]ccc2c1
[2], 100 kPa, x2 = 0
Conditions | specific volume [m3/kg]
303.15 K | 0.001001
313.15 K | 0.001009
323.15 K | 0.001017
333.15 K | 0.001025
343.15 K | 0.001033
353.15 K | 0.001041

[2], 333.15 K, Constant-volume piezometry, x2 = 0
Conditions | specific volume [m3/kg]
100 kPa | 0.001025
10000 kPa | 0.001018
20000 kPa | 0.001012
30000 kPa | 0.001007
40000 kPa | 0.001001
50000 kPa | 0.0009961
60000 kPa | 0.0009915
70000 kPa | 0.0009868
80000 kPa | 0.0009826
90000 kPa | 0.0009784
100000 kPa | 0.0009749

c1ccccc1 [benzene]
Conditions | specific volume [m3/kg]
[1], 293.15 K, 101.33 kPa | 0.001138

c1ccc(-c2ccccc2)cc1 [biphenyl]
[1]
Conditions | specific volume [m3/kg]
333.15 K, 100 kPa | 0.0009985
343.15 K, 100 kPa | 0.001007
353.15 K, 100 kPa | 0.001015
353.15 K, 10000 kPa | 0.001008
353.15 K, 20000 kPa | 0.001002
353.15 K, 30000 kPa | 0.0009956
363.15 K, 100 kPa | 0.001024
363.16 K, 100 kPa | 0.001024
363.16 K, 10000 kPa | 0.001016
363.16 K, 20000 kPa | 0.00101
363.16 K, 30000 kPa | 0.001003
363.16 K, 40000 kPa | 0.000997
363.16 K, 50000 kPa | 0.0009917
363.16 K, 60000 kPa | 0.0009864
363.16 K, 70000 kPa | 0.0009815

c1ccc(-c2ccccc2)cc1 [biphenyl] + c1ccc2[nH]ccc2c1
Conditions | specific volume [m3/kg]
[2], 333.15 K, 100 kPa, Constant-volume piezometry, x2 = 0 | 0.0009985

[2], 100 kPa, x2 = 0
Conditions | specific volume [m3/kg]
333.15 K | 0.0009985
343.15 K | 0.001007
353.15 K | 0.001015
363.15 K | 0.001024
